Measurements as given in patent US11180462B2, “Microbiocidal oxadiazole derivatives” (SYNGENTA PARTICIPATIONS AG, priority 2015, dated 2021).

What was measured:
Phakopsora Pachyrhizi = experiment: Fungicidal activity against Phakopsora pachyrhizi / soybean / leaf disc preventative (Asian soybean rust); format: in vivo; details: foliar, 200 ppm in the applied formulation, soybean leaf disks, compared to untreated control leaf disks, read-out: disease control
Experimental: Leaf disks or leaf segments of various plant species are cut from plants grown in a greenhouse. The cut leaf disks or segments are placed in multiwell plates (24-well format) onto water agar. The leaf disks are sprayed with a test solution before (preventative) or after (curative) inoculation. Compounds to be tested are prepared as DMSO solutions (max. 10 mg/ml) which are diluted to the appropriate concentration with 0.025% Tween20 just before spraying. The inoculated leaf disks or segments are incubated under defined conditions (temperature, relative humidity, light, etc.) according to the respective test system. A single evaluation of disease level is carried out 3 to 14 days after inoculation, depending on the pathosystem. Percent disease control relative to the untreated check leaf disks or segments is then calculated.
Fungicidal Activity Against Phakopsora Pachyrhizi Soybean/Leaf Disc Preventative (Asian Soybean Rust)
Soybean leaf disks are placed on water agar in multiwell plates (24-well format) and sprayed with the formulated test compound diluted in water. One day after application leaf discs are inoculated by spraying a spore suspension on the lower leaf surface. After an incubation period in a climate cabinet of 24-36 hours in darkness at 20° C. and 75% rh leaf disc are kept at 20° C. with 12 h light/day and 75% rh. The activity of a compound is assessed as percent disease control compared to untreated when an appropriate level of disease damage appears in untreated check leaf disks (12 to 14 days after application).
The following compounds at 200 ppm in the applied formulation give at least 80% disease control in this test when compared to untreated control leaf disks under the same conditions, which show extensive disease development.

[1] = test system: Glomerella lagenarium (Colletotrichum lagenarium); experiment: Fungicidal activity against Glomerella lagenarium (Colletotrichum lagenarium) liquid culture / cucumber / preventative (anthracnose); format: cell-based; details: Colletotrichum orbiculare; 20 ppm in the applied formulation; liquid culture (PDB), growth inhibition measured photometrically after 3 to 4 days; compared to untreated control; read-out: disease control
Method in brief: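 Photometric read-out of fungal growth after 2–7 days, expressed as percent antifungal activity versus untreated check. Cryo-stored conidia in PDB; compound at 20 ppm; dark, 24 °C, 96% RH.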

[2] = test system: Puccinia recondita f. Sp. Tritici; experiment: Fungicidal activity against Puccinia recondita f. sp. tritici / wheat / leaf disc preventative (brown rust); format: in vivo; details: foliar, 200 ppm in the applied formulation, wheat leaf segments, preventative, compared to untreated control leaf disks, read-out: disease control
Method in brief: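 Preventative leaf-segment test, wheat cv. Kanzler on water agar. Spray compound at 200 ppm, inoculate with spores 1 day later; 19° C., 75% rh, 12/12 h light. Read-out: % disease control vs untreated, 7 to 9 days after application.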

## CON(Cc1ccc(-c2noc(C(F)(F)F)n2)cc1)C(=O)C1(C)CCCCC1 [Compound 1.33, N-methoxy-1-methyl-N-[[4-[5-(trifluoromethyl)-1,2,4-oxadiazol-3-yl]phenyl]methyl]-cyclohexane-carboxamide]
Phakopsora Pachyrhizi
  pest or weed control at 200 ppm: ≥ 80%
[1]
  inhibition of growth at 20 ppm: ≥ 80%
[2]
  pest or weed control at 200 ppm: ≥ 80%

## C#CCOc1ccc(C(=O)N(Cc2ccc(-c3noc(C(F)(F)F)n3)cc2)OC)cc1F [Compound 1.51, 3-fluoro-N-methoxy-4-prop-2-ynoxy-N-[[4-[5-(trifluoromethy)-1,2,4-oxadiazol-3-yl]phenyl]methyl]-benzamide]
Phakopsora Pachyrhizi
  pest or weed control at 200 ppm: ≥ 80%
[1]
  inhibition of growth at 20 ppm: ≥ 80%
[2]
  pest or weed control at 200 ppm: ≥ 80%

## C#CCC(NS(=O)(=O)CC)C(=O)N(Cc1ccc(-c2noc(C(F)(F)F)n2)cc1)OC (stereo not drawn) [Compound 1.60, 2-(ethylsulfonylamino)-N-methoxy-N-[[4-[5-(trifluoromethyl)-1,2,4-oxadiazol-3-yl]phenyl]methyl]-pent-4-ynamide]
Phakopsora Pachyrhizi
  pest or weed control at 200 ppm: ≥ 80%
[2]
  pest or weed control at 200 ppm: ≥ 80%

## O=C(C1CCCCC1)N(Cc1ccc(-c2noc(C(F)(F)F)n2)cc1)C1CC1 [Compound 1.90, N-cyclopropyl-N-[[4-[5-(trifluoromethyl)-1,2,4-oxadiazol-3-yl]phenyl]methyl]-cyclohexane-carboxamide]
Phakopsora Pachyrhizi
  pest or weed control at 200 ppm: ≥ 80%
[1]
  inhibition of growth at 20 ppm: ≥ 80%
[2]
  pest or weed control at 200 ppm: ≥ 80%

## CCCCCC(=O)N(Cc1ccc(-c2noc(C(F)(F)F)n2)cc1)C1CC1 [Compound 1.93, N-cyclopropyl-N-[[4-[5-(trifluoromethyl)-1,2,4-oxadiazol-3-yl]phenyl]methyl]-hexanamide]
Phakopsora Pachyrhizi
  pest or weed control at 200 ppm: ≥ 80%
[1]
  inhibition of growth at 20 ppm: ≥ 80%
[2]
  pest or weed control at 200 ppm: ≥ 80%

## CCC(C)(CC)C(=O)N(Cc1ccc(-c2noc(C(F)(F)F)n2)cc1)C1CC1 [Compound 1.135, N-cyclopropyl-2-ethyl-2-methyl-N-[[4-[5-(trifluoromethyl)-1,2,4-oxadiazol-3-yl]phenyl]methyl]-butanamide]
Phakopsora Pachyrhizi
  pest or weed control at 200 ppm: ≥ 80%
[1]
  inhibition of growth at 20 ppm: ≥ 80%
[2]
  pest or weed control at 200 ppm: ≥ 80%

## C#CCOC(=O)NC(C(=O)N(Cc1ccc(-c2noc(C(F)(F)F)n2)cc1)C1CC1)C(C)C (stereo not drawn) [Compound 1.144, prop-2-ynyl N-[1-[cyclopropyl-[[4-[5-(trifluoromethyl)-1,2,4-oxadiazol-3-yl]phenyl]methyl]-carbamoyl]-2-methyl-propyl]carbamate]
Phakopsora Pachyrhizi
  pest or weed control at 200 ppm: ≥ 80%
[1]
  inhibition of growth at 20 ppm: ≥ 80%
[2]
  pest or weed control at 200 ppm: ≥ 80%

## C#CCN(Cc1ccc(-c2noc(C(F)(F)F)n2)cc1)C(=O)C1CCCCC1 [Compound 1.158, N-prop-2-ynyl-N-[[4-[5-(trifluoromethyl)-1,2,4-oxadiazol-3-yl]phenyl]methyl]-cyclohexane-carboxamide]
Phakopsora Pachyrhizi
  pest or weed control at 200 ppm: ≥ 80%
[1]
  inhibition of growth at 20 ppm: ≥ 80%
[2]
  pest or weed control at 200 ppm: ≥ 80%

## C#CCN(Cc1ccc(-c2noc(C(F)(F)F)n2)cc1)C(=O)C1CC1(Cl)Cl (stereo not drawn) [Compound 1.190, 2,2-dichloro-N-prop-2-ynyl-N-[[4-[5-(trifluoromethyl)-1,2,4-oxadiazol-3-yl]phenyl]methyl]-cyclopropane-carboxamide]
Phakopsora Pachyrhizi
  pest or weed control at 200 ppm: ≥ 80%
[1]
  inhibition of growth at 20 ppm: ≥ 80%
[2]
  pest or weed control at 200 ppm: ≥ 80%

## C#CCN(Cc1ccc(-c2noc(C(F)(F)F)n2)cc1)C(=O)Cc1ccc(C#N)cc1 [Compound 1.193, 2-(4-cyanophenyl)-N-prop-2-ynyl-N-[[4-[5-(trifluoromethyl)-1,2,4-oxadiazol-3-yl]phenyl]methyl]-acetamide]
Phakopsora Pachyrhizi
  pest or weed control at 200 ppm: ≥ 80%
[1]
  inhibition of growth at 20 ppm: ≥ 80%
[2]
  pest or weed control at 200 ppm: ≥ 80%

## CC(=O)CC(C)C(=O)N(Cc1ccc(-c2noc(C(F)(F)F)n2)cc1)CC1CC1 (stereo not drawn) [Compound 1.209, N-(cyclopropylmethyl)-2-methyl-4-oxo-N-[[4-[5-(trifluoromethyl)-1,2,4-oxadiazol-3-yl]phenyl)methyl]-pentanamide]
Phakopsora Pachyrhizi
  pest or weed control at 200 ppm: ≥ 80%
[1]
  inhibition of growth at 20 ppm: ≥ 80%
[2]
  pest or weed control at 200 ppm: ≥ 80%

## O=C(C1CCCC1)N(Cc1ccc(-c2noc(C(F)(F)F)n2)cc1)CC1CC1 [Compound 1.212, N-(cyclopropylmethyl)-N-[[4-[5-(trifluoromethyl)-1,2,4-oxadiazol-3-yl]phenyl]methyl]-cyclopentane-carboxamide]
Phakopsora Pachyrhizi
  pest or weed control at 200 ppm: ≥ 80%
[1]
  inhibition of growth at 20 ppm: ≥ 80%
[2]
  pest or weed control at 200 ppm: ≥ 80%

## CC(C)CC(=O)N(Cc1ccc(-c2noc(C(F)(F)F)n2)cc1)CC1CC1 [Compound 1.218, N-(cyclopropylmethyl)-3-methyl-N-[[4-[5-(trifluoromethyl)-1,2,4-oxadiazol-3-yl]phenyl]methyl]-butanamide]
Phakopsora Pachyrhizi
  pest or weed control at 200 ppm: ≥ 80%
[1]
  inhibition of growth at 20 ppm: ≥ 80%
[2]
  pest or weed control at 200 ppm: ≥ 80%

## O=C(C1CCC1)N(Cc1ccc(-c2noc(C(F)(F)F)n2)cc1)CC1CC1 [Compound 1.221, N-(cyclopropylmethyl)-N-[[4-[5-(trifluoromethyl)-1,2,4-oxadiazol-3-yl]phenyl]methyl]-cyctobutane-carboxamide]
Phakopsora Pachyrhizi
  pest or weed control at 200 ppm: ≥ 80%
[1]
  inhibition of growth at 20 ppm: ≥ 80%
[2]
  pest or weed control at 200 ppm: ≥ 80%

## CC=CCC(=O)N(Cc1ccc(-c2noc(C(F)(F)F)n2)cc1)CC1CC1 [Compound 1.222, N-(cyclopropylmethyl)-N-[[4-[5-(trifluoromethyl)-1,2,4-oxadiazol-3-yl]phenyl]methyl]-pent-3-enamide]
Phakopsora Pachyrhizi
  pest or weed control at 200 ppm: ≥ 80%
[1]
  inhibition of growth at 20 ppm: ≥ 80%
[2]
  pest or weed control at 200 ppm: ≥ 80%

## COCCCC(=O)N(Cc1ccc(-c2noc(C(F)(F)F)n2)cc1)CC1CC1 [Compound 1.238, N-(cyclopropylmethyl)-4-methoxy-N-[[4-[5-(trifluoromethyl)-1,2,4-oxadiazol-3-yl]phenyl]methyl]-butanamide]
Phakopsora Pachyrhizi
  pest or weed control at 200 ppm: ≥ 80%
[1]
  inhibition of growth at 20 ppm: ≥ 80%
[2]
  pest or weed control at 200 ppm: ≥ 80%

## CON(C(=O)C1(C#N)CC1)C(C)c1ccc(-c2noc(C(F)(F)F)n2)cc1 (stereo not drawn) [Compound 1.274, 1-cyano-N-methoxy-N-[1-[4-[5-(trifluoromethyl)-1,2,4-oxadiazol-3-yl]phenyl]ethyl]-cyclopropane-carboxamide]
Phakopsora Pachyrhizi
  pest or weed control at 200 ppm: ≥ 80%
[1]
  inhibition of growth at 20 ppm: ≥ 80%
[2]
  pest or weed control at 200 ppm: ≥ 80%

## CCCON(Cc1ccc(-c2noc(C(F)(F)F)n2)cc1)C(=O)C1CCCO1 (stereo not drawn) [Compound 1.312, N-propoxy-N-[[4-[5-(trifluoromethyl)-1,2,4-oxadiazol-3-yl]phenyl]methyl]-tetrahydrofuran-2-carboxamide]
Phakopsora Pachyrhizi
  pest or weed control at 200 ppm: ≥ 80%
[1]
  inhibition of growth at 20 ppm: ≥ 80%
[2]
  pest or weed control at 200 ppm: ≥ 80%

## COCCN(Cc1ccc(-c2noc(C(F)(F)F)n2)cc1)C(=O)CC(C)(C)C [Compound 1.342, N-(2-methoxyethyl)-3,3-dimethyl-N-[[4-[5-(trifluoromethyl)-1,2,4-oxadiazol-3-yl]phenyl]methyl]-butanamide]
Phakopsora Pachyrhizi
  pest or weed control at 200 ppm: ≥ 80%
[1]
  inhibition of growth at 20 ppm: ≥ 80%
[2]
  pest or weed control at 200 ppm: ≥ 80%

## CCCC(=O)N(Cc1ccc(-c2noc(C(F)(F)F)n2)cc1)CC1CCCO1 (stereo not drawn) [Compound 1.416, N-(tetrahydrofuran-2-ylmethyl)-N-[[4-[5-(trifluoromethyl)-1,2,4-oxadiazol-3-yl]phenyl]methyl]-butanamide]
Phakopsora Pachyrhizi
  pest or weed control at 200 ppm: ≥ 80%
[1]
  inhibition of growth at 20 ppm: ≥ 80%
[2]
  pest or weed control at 200 ppm: ≥ 80%

## O=C(CC1CC1)N(Cc1ccc(-c2noc(C(F)(F)F)n2)cc1)CC1CCCO1 (stereo not drawn) [Compound 1.418, 2-cyclopropyl-N-(tetrahydrofuran-2-ylmethyl)-N-[[4-[5-(trifluoromethyl)-1,2,4-oxadiazol-3-yl]phenyl]methyl]-acetamide]
Phakopsora Pachyrhizi
  pest or weed control at 200 ppm: ≥ 80%
[1]
  inhibition of growth at 20 ppm: ≥ 80%
[2]
  pest or weed control at 200 ppm: ≥ 80%

## N#CCC(=O)N(CCO)Cc1ccc(-c2noc(C(F)(F)F)n2)cc1 [Compound 1.728, 2-cyano-N-(2-hydroxyethyl)-N-[[4-[5-(trifluoromethyl)-1,2,4-oxadiazol-3-yl]phenyl]methyl]-acetamide]
Phakopsora Pachyrhizi
  pest or weed control at 200 ppm: ≥ 80%
[2]
  pest or weed control at 200 ppm: ≥ 80%

## O=C(ON(Cc1ccc(-c2noc(C(F)(F)F)n2)cc1)C(=O)c1ccccc1Cl)c1ccccc1Cl [Compound 1.755, [(2-chlorobenzoyl)-[[4-[5-(trifluoromethyl)-1,2,4-oxadiazol-3-yl]phenyl]methyl]-amino] 2-chlorobenzoate]
Phakopsora Pachyrhizi
  pest or weed control at 200 ppm: ≥ 80%
[1]
  inhibition of growth at 20 ppm: ≥ 80%
